Measured values reported in patent publication US11203598B2, “Compounds for repressing cancer cell growth” (Institute For Cancer Research, priority 2018, dated 2021).

Columns and labels:
[1] = tested on: cancer (DLD-1, SW480, and RXF393) cell lines; assay: CellTiter-Glo cell viability, panel of cancer cell lines (summary); assay type: cell-based; settings: Homo sapiens; 72 hours
Experimental: Cells were seeded in 96-well plates at a density of 5×10^3 cells per well. 20 μL of CellTiter-Glo® Reagent was added directly to the wells, following the manufacturer's protocol, and bioluminescence signal was determined using an IVIS imaging system.
To begin establishing the potential of CB002 as a candidate therapeutic agent, its therapeutic index was determined by treating cancer (DLD-1, SW480, and RXF393) and normal (WI38 and MRC5) cell lines with concentrations of CB002 ranging from 0-500 μM for a period of 72 hours and assessing cell viability by the CellTiter-Glo® luminescence assay (see, FIG. 2). CB002 has a significant therapeutic index among the cells tested.

[2] = tested on: p53 reporter (PG13-luc) in HCT116 p53-null cells; assay: luciferase-based p53-reporter activity assay; assay type: cell-based, human; settings: 3 and 24 hours
Experimental: (§1) High-throughput screening was performed using a non-invasive bioluminescence imaging in human colorectal cancer cell lines that stably express a p53-regulated luciferase reporter. Cells were seeded in 96-well plates (Greiner Bio-One) at a density of 1×10^4 cells per well. p53 transcriptional activity was imaged using an IVIS imaging system for a period of 3-4 hours.
(§2) Cell-based screening of p53 transcriptional activity for small molecule CB002 was accomplished using noninvasive bioluminescence imaging in human colorectal cancer cell lines SW480, DLD-1, DLD-1 p73^−/−, HCT116, and HCT116 p53^−/−. These cell lines stably express a p53 reporter, PG13-luc. Cells were seeded in opaque 96-well culture at a density of 5×10^4 cells/well. The cells were treated with CB002 at ranging doses with DMSO controls. Bioluminescence in cells was imaged for p53 transcriptional activity at 2 hours and 24 hours using IVIS imaging system (Xenogen).
(§3) In order to identify small molecules that could restore the p53 signaling pathway, 50,000 small molecules from the Chembridge Library were screened using a firefly luciferase human p53 reporter assay system. SW480 colorectal cancer cells that stably express the human p53 reporter were treated with compounds at various concentrations from 0-100 μM for 2 and 24 hours. […] To further validate the effects of CB002, the screening was expanded by testing effects on p53-dependent reporter activity in DLD-1, wild-type HCT116, and p53-null colorectal cancer HCT116 cell lines. […] Referring to FIG. 1, representative images of luciferase-based p53-reporter activity assays are shown at 3 hours (Panel A). Quantification of the luciferase-based p53-reporter activity assays in three different cell lines incubated from 3-24 hours with CB002 are shown (Panels B-D). p53-reporter activity assays are shown at 2 hours for HCT116 p53-null cells (Panel E).

[3] = tested on: p53 reporter (PG13-luc) in wild-type HCT116 cells; assay: luciferase-based p53-reporter activity assay; assay type: cell-based, human; settings: 3 and 24 hours
Experimental: as §1, §2, §3

DLD-1 cells = assay: colony formation assay; assay type: cell-based, human; settings: 50 μM for 24 hours, then 15 days drug-free
Experimental: (§4) Cells were seeded in 6-well plates at a density of 500 cells per well. Cells were treated with CB002 small molecule for 24 hours. Then, cells were cultured in drug-free complete media for 15 days. During the course of 15 days, the media was changed every 2-3 days. At the end of the two weeks, media was removed, wells were washed twice with Dulbecco's phosphate buffered saline (PBS) and the colonies were fixed and stained with 10% methanol and 0.25% crystal violet (Sigma-Aldrich) for 30 minutes. Wells were then carefully washed with distilled and deionized water and allowed to dry.
(§5) To further validate CB002 as a candidate therapeutic, its capability to affect cell growth was determined by analyzing cancer cell colony formation. Colony formation assays are widely used to determine the ability of a single cell to proliferate and form a colony in culture. This method offers the advantage of elucidating the sensitivity of cells towards cytotoxic agents in a long-term assay that may mimic the response seen in mouse models. […] Referring to FIG. 3, cells were treated with 50 μM of CB002 for a period of 24 hours, at which point media was replaced with complete media for a period of 15 days. Images are from one of three replicates.

SW480 cells = assay: colony formation assay; assay type: cell-based, human; settings: 50 μM for 24 hours, then 15 days drug-free
Experimental: as §4, §5

[4] = tested on: p73 DLD-1 stable knockdown cells; assay: colony formation assay; assay type: cell-based, human; settings: 50 μM for 24 hours, then 15 days drug-free
Experimental: as §4, §5

WI38 normal cells = assay: apoptosis assay, sub-G1 analysis (propidium iodide, flow cytometry); assay type: cell-based, human
Experimental: Apoptotic cells were quantified by sub-G1 analysis. Cells were seeded at a density of 2.5×10^5 to 5×10^5 in a 6-well plate and treated for 48-72 hours. After treatment, adherent cells were trypsinized and collected along with floating cells, washed with PBS and fixed in 70% ethanol. Cells were then incubated in a Phosphate-citric acid buffer (0.2 M Na2HPO4+0.1 M Citric Acid, pH 7.8) at room temperature for 5 minutes, spun down and resuspended for staining with 50 μg/mL propidium iodide (PI) in the presence of 250 μg/mL pancreatic ribonuclease (RNase A). Sub-G1 analyses were performed using an Epics Elite Epics flow cytometer (Coulter-Beckman).
Cells were seeded out at 1×10^6 cells/well on six well plates and treated with CB002 and Analog 11 at ranging doses with DMSO controls. Cells were harvested after 72 hours of treatment, all cells including floating cells were fixed with ethanol and stained with Propidium Iodide and then analyzed using Epics Elite flow cytometer to measure the DNA content of the stained cells.

[5] = tested on: SW480 NOXA stable knockdown cells; assay: apoptosis assay, sub-G1 analysis; assay type: cell-based, human; settings: 96 μM, 48 hours, NOXA stably knocked down; DMSO 3.93%
Experimental: A NOXA shRNA plasmid construct was amplified according to the manufacturer's recommendation (TRC Lentiviral Human PMAIP1 shRNA, Dharmacon). Plasmid DNA was isolated using the PureLink® HiPure Plasmid Filter Maxiprep Kit (Invitrogen) according to the manufacturer's instructions. Lentivirus production was performed by transfecting HEK293T cells at a density of 8×10^6 cells per 10 cm dish with 1.6 μg pMD2.G envelope plasmid, 3.2 μg psPAX2 packaging vector, 3.2 μg plasmid DNA, and 24 μL of Lipofectamine® Transfection reagent 2000 (Life Technologies) in a total volume of reaction of 1 mL of antibiotic free DMEM media for a period of 6-10 hours. Media was then replaced with antibiotic free DMEM. Lentiviral particles were collected between 48-72 hours. SW480 cells ([…] in a 12-well plate) were infected 1:1 (virus containing media: antibiotic free DMEM media, total volume 1 mL) for a period of 24 hours. Then, media was replaced with DMEM complete media for an additional 24 hours. At this point, cells were split and seeded (20% confluent) for selection in a 10 cm dish with puromycin (2.5 μg/mL)-containing complete DMEM media and cultured for 10 days. Puromycin containing complete media was replaced every 2-3 days. Puromycin-resistant clones were screened for knockdown of NOXA by Western blot analysis with NOXA antibody.
Apoptotic cells were quantified by sub-G1 analysis. […]

[6] = tested on: autophagic vacuoles in DLD-1 cells; assay: CYTO-ID autophagy detection kit; assay type: cell-based, human; settings: 50 μM, 24 hours, versus DMSO

SMILES: Cn1c(=O)c2[nH]c(Nc3ccccc3)nc2n(C)c1=O [CB002, 8-anilino-1,3-dimethyl-3,7-dihydro-1H-purine-2,6-dione]
- IC50 [1]: 96 to 400 µM
- p53 reporter activity [2]: induced in a dose-dependent manner
- p53 reporter activity [3]: induced in a dose-dependent manner
- colony formation (DLD-1 cells): significantly decreases colony formation
- colony formation (SW480 cells): significantly decreases colony formation
- colony formation [4]: significantly decreases colony formation
- sub-G1 population (WI38 normal cells; 96 μM, 48 hours, DMSO control 7.6%): 9.8%
- sub-G1 fraction (WI38 normal cells; 200 μM, 72 hours): relatively unchanged
- sub-G1 content [5]: 3.7%
- autophagic vacuole-specific staining [6]: increase in autophagic vacuole-specific staining
